Here are results for 34 compounds from patent US20050197350A1, “Novel quinoline, tetrahydroquinazoline, and pyrimidine derivatives and methods of treatment related to the use thereof” (TAISHO PHARMACEUTICAL CO., LTD., priority 2003, published 2005).

The subject of one experiment is MCH receptors. Nature of the experiment: MCH receptor activity class (method not given).
Settings: not given
As for `COc1cc(OC)cc(C(=O)N[C@H]2CC[C@@H](Nc3cc(C)c4ccccc4n3)CC2)c1` [Example 2553, 3,5-dimethoxy-N-{cis-4-[(4-methylquinolin-2-yl)amino]cyclohexyl}benzamide], the class was determined as 1.

The experiment is the same for the next values; noted with them: MCH receptor activity class 1-3 (percent of control at 10^-7 M or IC50).
On to `CN(C)c1ccnc(N[C@H]2CC[C@@H](NC(=S)Nc3ccc(Br)cc3Cl)CC2)n1` [compound 2316], for which the class is recorded as 3 (Class 3 The value of percent of control at 10^−7 M was more than 60% or the value of IC50 was more than 200 nM.). For the compound `Cc1cc([N+](=O)[O-])ccc1NC(=S)N[C@H]1CC[C@@H](Nc2cc(N(C)C)c3ccccc3n2)CC1` [compound 2291], the class was 3 (Class 3 The value of percent of control at 10^−7 M was more than 60% or the value of IC50 was more than 200 nM.). On the same count and under the same terms, with `CN(C)c1ccnc(N[C@H]2CC[C@@H](CNC(=O)Nc3ccccc3C(F)(F)F)CC2)n1` [compound 2412] the figure was 3 (Class 3 The value of percent of control at 10^−7 M was more than 60% or the value of IC50 was more than 200 nM.).

Still in this experiment, the particulars now being: MCH receptor; class by percent of control at 10^-7 M or IC50.
`CN(C)c1cc(N[C@H]2CC[C@@H](CNC(=O)c3ccc(C#N)cc3)CC2)nc2ccccc12` [compound 204]: the class was 3 (Class 3 The value of percent of control at 10^−7 M was more than 60% or the value of IC50 was more than 200 nM.). Same read-out and setting: with `CN(C)c1nc(N[C@H]2CC[C@@H](NC(=S)Nc3cccc(Cl)c3)CC2)nc2c1CCCC2` [compound 1933] the figure was 3 (Class 3 The value of percent of control at 10^−7 M was more than 60% or the value of IC50 was more than 200 nM.); with `CN(C)c1cc(N[C@H]2CC[C@@H](CNC(=O)c3ccc(F)c(F)c3)CC2)nc2ccccc12` [compound 160, N-[(cis-4-{[4-(dimethylamino)quinolin-2-yl]amino}cyclohexyl)methyl]-3,4-difluorobenzamide], 3 (Class 3 The value of percent of control at 10^−7 M was more than 60% or the value of IC50 was more than 200 nM.). As to `CCCCc1ccc(NC(=S)N[C@H]2CC[C@@H](Nc3nc4c(c(N(C)C)n3)CCCC4)CC2)cc1` [compound 2022], the class is 3 (Class 3 The value of percent of control at 10^−7 M was more than 60% or the value of IC50 was more than 200 nM.).

The same experiment, now with this note: activity class per percent of control at 10^-7 M or IC50.
`C[C@@H](NC(=O)c1ccccc1C(=O)N[C@H]1CC[C@@H](Nc2nc3c(c(N(C)C)n2)CCCC3)CC1)c1cccc2ccccc12` [compound 1013]: the class was 3 (Class 3 The value of percent of control at 10^−7 M was more than 60% or the value of IC50 was more than 200 nM.).

As for `CN(C)c1nc(N[C@H]2CC[C@@H](NC(=O)c3ccc(-c4cccc([N+](=O)[O-])c4)o3)CC2)nc2c1CCCC2` [compound 1039], the class is on record as 2 (Class 2: The value of percent of control at 10^−7 M was from 40% to 60% or the value of IC′50 was from 50 nM to 200 nM.).

The experiment is the same for the next values; noted with them: class 1-3 by percent of control at 10^-7 M or IC50.
On to `CN(C)c1nc(N[C@H]2CC[C@@H](NC(=O)C3C[C@H]3c3ccccc3)CC2)nc2c1CCCC2` (stereo partly drawn) [compound 482, (2R)-N-(cis-4-{[4-(dimethylamino)-5,6,7,8-tetrahydroquinazolin-2-yl]amino}cyclohexyl)-2-phenylcyclopropanecarboxamide], for which the class is given as 2 (Class 2: The value of percent of control at 10^−7 M was from 40% to 60% or the value of IC′50 was from 50 nM to 200 nM.).

The experiment is the same for the next values; noted with them: class by percent of control at 10^-7 M or IC50.
As to `CN(C)c1ccnc(N[C@H]2CC[C@@H](NC(=O)c3cccnc3Sc3ccccc3)CC2)n1` [compound 354], the class is recorded as 3 (Class 3 The value of percent of control at 10^−7 M was more than 60% or the value of IC50 was more than 200 nM.). Same read-out and setting: with `CN(C)c1ccnc(N[C@H]2CC[C@@H](NC(=O)c3ccc(-c4ccc(Cl)cc4[N+](=O)[O-])o3)CC2)n1` [compound 815, 5-(4-chloro-2-nitrophenyl)-N-(cis-4-{[4-(dimethylamino)pyrimidin-2-yl]amino}cyclohexyl)-2-furamide] the figure was 1 (Class 1: The value of percent of control at 10^−7 M was less than 40% or the value of IC50 was less than 50 nM.). Still for that read-out and setting: with `CN(C)c1cc(N[C@H]2CC[C@@H](NC(=O)Nc3cccc4ccccc34)CC2)nc2ccccc12` [compound 2130, N-(cis-4-{[4-(dimethylamino)quinolin-2-yl]amino}cyclohexyl)-N′-1-naphthylurea] the figure was 1 (Class 1: The value of percent of control at 10^−7 M was less than 40% or the value of IC50 was less than 50 nM.); with `CCOc1ccccc1NC(=O)N[C@H]1CC[C@@H](Nc2nc3c(c(N(C)C)n2)CCCC3)CC1` [compound 1712], 2 (Class 2: The value of percent of control at 10^−7 M was from 40% to 60% or the value of IC′50 was from 50 nM to 200 nM.). On the same count and under the same terms, with `COc1ccc(CNC[C@H]2CC[C@@H](Nc3cc(N(C)C)c4ccccc4n3)CC2)cc1C` [compound 1190] the figure was 3 (Class 3 The value of percent of control at 10^−7 M was more than 60% or the value of IC50 was more than 200 nM.); with `CN(C)c1nc(N[C@H]2CC[C@@H](NC(=O)Nc3ccccc3Oc3ccccc3)CC2)nc2c1CCCC2` [compound 1864], 3 (Class 3 The value of percent of control at 10^−7 M was more than 60% or the value of IC50 was more than 200 nM.); with `COc1cc2ccccc2cc1CN[C@H]1CC[C@@H](Nc2cc(N(C)C)c3ccccc3n2)CC1` [compound 1454], 3 (Class 3 The value of percent of control at 10^−7 M was more than 60% or the value of IC50 was more than 200 nM.). Turning to `CN(C)c1nc(N[C@H]2CC[C@@H](NCc3c[nH]c4ccccc34)CC2)nc2c1CCCC2` [compound 1328], the class was 3 (Class 3 The value of percent of control at 10^−7 M was more than 60% or the value of IC50 was more than 200 nM.).

For `CN(C)c1nc(N[C@H]2CC[C@@H](CNCC=C(c3ccccc3)c3ccccc3)CC2)nc2c1CCCC2` [compound 1400], the class is reported as 1 (Class 1: The value of percent of control at 10^−7 M was less than 40% or the value of IC50 was less than 50 nM.). `CCCCCC(=O)N[C@H]1CC[C@@H](Nc2nccc(N(C)C)n2)CC1` [compound 258]: the class is recorded as 3 (Class 3 The value of percent of control at 10^−7 M was more than 60% or the value of IC50 was more than 200 nM.). Still for that read-out and setting: with `CN(C)c1ccnc(N[C@H]2CC[C@@H](NC(=O)COc3cccc(Cl)c3)CC2)n1` [compound 351, 2-(3-chlorophenoxy)-N-(cis-4-{[4-(dimethylamino)pyrimidin-2-yl]amino}cyclohexyl)acetamide] the figure was 1 (Class 1: The value of percent of control at 10^−7 M was less than 40% or the value of IC50 was less than 50 nM.); with `CCOc1c(Br)cc(Br)cc1CNC[C@H]1CC[C@@H](Nc2cc(N(C)C)c3ccccc3n2)CC1` [compound 1204], 3 (Class 3 The value of percent of control at 10^−7 M was more than 60% or the value of IC50 was more than 200 nM.); with `Cc1onc(-c2ccccc2)c1NC(=O)N[C@H]1CC[C@@H](Nc2cc(N(C)C)c3ccccc3n2)CC1` [compound 2166], 3 (Class 3 The value of percent of control at 10^−7 M was more than 60% or the value of IC50 was more than 200 nM.). Take `Cc1cc(CNC[C@H]2CC[C@@H](Nc3nc4c(c(N(C)C)n3)CCCC4)CC2)cc(C)c1O` [compound 1382]: the class is 2 (Class 2: The value of percent of control at 10^−7 M was from 40% to 60% or the value of IC′50 was from 50 nM to 200 nM.). The same measure, in the same setting: with `Cc1cccc(C)c1NC(=S)N[C@H]1CC[C@@H](Nc2nc3c(c(N(C)C)n2)CCCC3)CC1` [compound 1741] the figure was 3 (Class 3 The value of percent of control at 10^−7 M was more than 60% or the value of IC50 was more than 200 nM.); with `CCOC(=O)[C@H](Cc1ccccc1)NC(=O)N[C@H]1CC[C@@H](Nc2nc3c(c(N(C)C)n2)CCCC3)CC1` (relative stereo) [compound 1730], 3 (Class 3 The value of percent of control at 10^−7 M was more than 60% or the value of IC50 was more than 200 nM.); with `COc1ccc(Oc2ccc([N+](=O)[O-])cc2C(=O)N[C@H]2CC[C@@H](Nc3nccc(N(C)C)n3)CC2)cc1` [compound 326, N-(cis-4-{[4-(dimethylamino)pyrimidin-2-yl]amino}cyclohexyl)-2-(4-methoxyphenoxy)-5-nitrobenzamide], 1 (Class 1: The value of percent of control at 10^−7 M was less than 40% or the value of IC50 was less than 50 nM.). `Cc1c(Cl)cccc1NC(=O)N[C@H]1CC[C@@H](Nc2nccc(N(C)C)n2)CC1` [compound 2205]: the class is given as 3 (Class 3 The value of percent of control at 10^−7 M was more than 60% or the value of IC50 was more than 200 nM.).

On to `COc1ccc(NC(=S)N[C@H]2CC[C@@H](Nc3cc(N(C)C)c4ccccc4n3)CC2)cc1OC` [compound 2176], for which the class is listed as 3 (Class 3 The value of percent of control at 10^−7 M was more than 60% or the value of IC50 was more than 200 nM.). The same measure, in the same setting: with `COc1cc([N+](=O)[O-])ccc1C(=O)N[C@H]1CC[C@@H](Nc2cc(N(C)C)c3ccccc3n2)CC1` [compound 771, N-(cis-4-{[4-(dimethylamino)quinolin-2-yl]amino}cyclohexyl)-2-methoxy-4-nitrobenzamide] the figure was 2 (Class 2: The value of percent of control at 10^−7 M was from 40% to 60% or the value of IC′50 was from 50 nM to 200 nM.). Still for that read-out and setting: with `CN(C)c1ccnc(N[C@H]2CC[C@@H](NC(=O)c3cccc(F)c3)CC2)n1` [compound 323] the figure was 3 (Class 3 The value of percent of control at 10^−7 M was more than 60% or the value of IC50 was more than 200 nM.). The same measure, in the same setting: with `Cc1cc(C(=O)N[C@H]2CC[C@@H](Nc3nccc(N(C)C)n3)CC2)ccc1[N+](=O)[O-]` [compound 828, N-(cis-4-{[4-(dimethylamino)pyrimidin-2-yl]amino}cyclohexyl)-3-methyl-4-nitrobenzamide] the figure was 2 (Class 2: The value of percent of control at 10^−7 M was from 40% to 60% or the value of IC′50 was from 50 nM to 200 nM.).

Staying with this experiment, now noted: class by percent of control at 10^−7 M or IC50.
Turning to `Cc1cc(N(C)C)nc(N[C@H]2CC[C@@H](NC(=O)c3ccc(C)c(F)c3)CC2)n1` [compound 2965, N-(cis-4-{[4-(dimethylamino)-6-methylpyrimidin-2-yl]amino}cyclohexyl)-3-fluoro-4-methylbenzamide], the class was 1 (Class 1: The value of percent of control at 10^−7 M was less than 40% or the value of IC50 was less than 50 nM.).
